Patent US7438926B2, “Methods for inhibiting decrease in transdermal drug flux by inhibition of pathway closure” (Alza Corporation, priority 2000, dated 2008)
Like-named read-outs stand apart in the source and are kept apart here.

Tests used:
pathway closure [1] = test: Effect of pathway closure inhibitors on passive transdermal PPS flux (Example 3, 545 μm array); assay type: in vivo, hairless guinea pigs; details: for Effect on decrease in PPS flux between 1 and 24 h (in words): 3% citric acid trisodium salt or 50% 1,2,6-hexanetriol in PPS 0.1 mg/mL formulation; for Increase in total amount of PPS transported as compared to controls: 3% citric acid trisodium salt or 50% 1,2,6-hexanetriol
Procedure: In this experiment, PPS was delivered by passive diffusion through pathways in the skin created by a microprotrusion array. The concentration of PPS was below the concentration required for inhibition of pathway collapse (see Table II). Therefore, at the concentration used in this experiment, PPS behaved like a drug lacking any activity on pathway closure.
Microprotrusion array application was performed with an impact applicator. […] Following application, the stretching tension was released. […] Flux in the presence of 1,2,6-hexanetriol was decreased by less than 2 fold between 1 and 24 h. Total amount transported was increased about 4 and 7 folds in the presence of citric acid and 1,2,6-hexanetriol, respectively, as compared to controls as shown in FIG. 2.

pathway closure [2] = details: PPS 0.16 mg/mL; 3% citric acid trisodium salt, 50% 1,2,6-hexanetriol or their mixture; 45 min vs 24 h
Procedure: In all guinea pigs, the skin of one flank was manually stretched bilaterally at the time of the application of the system. Microprotrusion array application was performed with an impact applicator. […] Following application, the stretching tension was released. The adhesive ring was left adhered on the skin and the microprotrusion array was removed. […] Additional groups of HGPs were treated in the same way, except that the formulation contained 3% citric acid trisodium salt or 50% 1,2,6-hexanetriol. At 1 and 24 h after application, 3 systems from each group were removed and residual drug washed from the skin.
(§1) Evaluation was performed at 45 min instead of 1 h. In addition, additional groups of animals received a formulation containing the mixture of 3% citric acid trisodium salt and 50% 1,2,6-hexanetriol.

pathway closure [3] = test: Inhibition of pathway closure by chemicals, methylene blue dye score after microprotrusion array pretreatment; assay type: in vivo, hairless guinea pigs; details: 24 h; for Effect on pathway closure (in words): methylene blue evaluation, Table II; for Score (methylene blue): scale 0 to 5, 0.5 or greater significant
Procedure: Inhibition of pathway collapse by chemical agents was studied following pretreatment of the skin with a microprotrusion array and application of a formulation containing the agent for 24 h. Quantitation was performed by evaluation of dye impregnation of the pathways.
Application of the microprotrusion array was performed with an impact applicator. […] Following application, the stretching tension was released. […] The guinea pig received a second system containing a different formulation on the opposite site. Twenty four hours after application, three systems from each group were removed and residual formulation washed from the skin. The skin was stained with a 1% methylene blue solution. Excess dye was thoroughly removed with 70% isopropyl alcohol pads and a picture of the site was taken. Pictures were scored on a 0 to 5 scale, 5 being the dye uptake obtained immediately following microprotrusion array application and 0 being the dye uptake obtained after 24 h contact with a control formulation. A score of 0.5 or greater was considered significant. Various osmotic agents, anticoagulants, antiinflammatory agents, gelling agents as well as gels of different pH and various additives were tested (Table II).

pathway closure [4] = test: India ink staining of sites after microprotrusion array pretreatment; assay type: in vivo, hairless guinea pigs; details: sites exposed to the additive for 24 h
[5] = assay type: in vivo, hairless guinea pigs; details: passive, array pretreatment (545 micrometer, 72/cm^2), PPS 0.05 mg/mL, DECAD 12 mg/mL, Inulin 2.5 mg/mL
Text: Decrease in drug flux has been studied with three model drugs presenting different charge characteristics: pentosan polysulfate (PPS), a highly negatively charged compound, DECAD, a synthetic model decapeptide bearing two positive charges at pH 5.5, and inulin, a neutral polysaccharide.
In this experiment, PPS, DECAD, and inulin were delivered by passive diffusion through pathways in the skin created by pretreatment with a microprotrusion array. Pretreatment involves placing a microprotrusion array onto the skin with sufficient force to create a plurality of microslits/microcuts through the stratum corneum of the skin. The microprotrusion array is then removed from the skin and then some form of agent delivery device or agent reservoir is placed over the pathways in order to effect agent delivery or sampling. Pretreatment was used instead of integrated system because pathway closure appears to occur more rapidly and more reproducibly following pretreatment than when the microprotrusions are left in the skin during drug delivery. The concentration of PPS was below the concentration required for anticoagulant effect. All drugs were dissolved in water and solutions were gelled with 2% hydroxyethylcellulose. […]. PPS and DECAD were radiolabeled with tritium. […] was radiolabeled with ^14C.
Microprotrusion array application was performed with an impact applicator. […]. […]

[6] = assay type: in vivo, hairless guinea pigs
[7] = in vivo, po, cited from earlier work
[8] = parameters: species or system hairless guinea pigs; details: guinea pig, in vivo
Procedure: Additional experiments were performed with PPS in order to test alternative modes of delivery. […]. By comparison, with the same microprotrusion array and the same PPS concentration, total dose from a transdermal microprotrusion array with integrated drug reservoir and a pretreatment with a microprotrusion array and subsequent application of a drug reservoir was 2.2±0.2 mg and 1.4±0.2 mg, respectively. […]

pathway closure [9] = details: guinea pig, not told
Procedure: as §1
An additional experiment was performed with PPS. Conditions were identical to that described in Example 4. Gluconic acid sodium salt, glucuronic acid sodium salt and glucose were evaluated at 0.6 M concentration with or without 3% citric acid.

[10] = parameters: species or system hairless guinea pigs; details: guinea pig, in vivo; remark: listed apart in the source
Text: […]. […] […].

Compound: OCCCCC(O)CO (stereo not drawn) [1,2,6-Hexanetriol]
- Effect on decrease in PPS flux between 1 and 24 h (in words) (pathway closure [1]): inhibited this decrease in flux
- Increase in total amount of PPS transported as compared to controls (pathway closure [1]; PPS 0.1 mg/mL): ~7 folds
- Decrease in PPS flux between 1 and 24 h in the presence of additive (pathway closure [1]; PPS 0.1 mg/mL, formulation with 50% 1,2,6-hexanetriol): less than 2 fold
- Effect on decrease in PPS flux at 24 hours (in words) (pathway closure [2]): inhibited significantly the decrease in flux
- Effect on pathway closure (in words) (pathway closure [3]): most effective agents
- Score (methylene blue) (pathway closure [3]; additive concentration 11%): 2.0 ± 0.3
- Score (methylene blue) (pathway closure [3]; additive concentration 23%): 3.0 ± 0.5
- Score (methylene blue) (pathway closure [3]; additive concentration 50%): 3.8 ± 0.2

Compound: OCC(O)CO [Glycerin]
- Pathways open for larger sized compounds (India ink staining) (pathway closure [4]): pathways were open for larger sized compounds
- Score (methylene blue) (pathway closure [3]; additive concentration 30%): 2.7 ± 0.2
- Score (methylene blue) (pathway closure [3]; additive concentration 50%): 3.0 ± 0.2
- Score (methylene blue) (pathway closure [3]; additive concentration 70%): 2.7 ± 0.3

Compound: O=C(O)CC(O)(CC(=O)O)C(=O)O [citric acid]
- Effect on decrease in PPS flux between 1 and 24 h (in words) (pathway closure [1]): inhibited this decrease in flux
- Increase in total amount of PPS transported as compared to controls (pathway closure [1]; PPS 0.1 mg/mL): about 4 folds
- Effect on decrease in PPS flux at 24 hours (in words) (pathway closure [2]): inhibited significantly the decrease in flux
- Pathways open for larger sized compounds (India ink staining) (pathway closure [4]): pathways were open for larger sized compounds
- Effect on pathway closure (in words) (pathway closure [3]): most effective agents in preventing pathway closure

Compound: inulin
- Drug Flux ([5]; 1 h): 13.9 ± 1.6 μg/(cm^2h)
- Drug Flux ([5]; 24 h): 0.489 ± 0.123 μg/(cm^2h)
- percentage excreted in urine following iv injection ([6]; over two days following injection, previous studies): 94%

Compound: pentosan polysulfate [PPS]
- bioavailability ([7]; 300 mg): 1-3%
- fraction of dose absorbed found intact in urine [7]: less than 5%
- Decrease in PPS flux between 1 hour and 24 hours (pathway closure [1]; PPS 0.1 mg/mL, 2% HEC, no anti-healing agent): about 12 fold
- total dose [8]: 2.2 ± 0.2 mg
- total dose delivered [8]: 1.9 ± 0.1 mg
- Change of PPS flux between 1 hour and 24 hours (in words) (pathway closure [9]): flux decreased dramatically
- Score (methylene blue) (pathway closure [3]; additive concentration 0.01%): 0 ± 0
- Score (methylene blue) (pathway closure [3]; additive concentration 5%): 0.5 ± 0.0
- intact fraction of dose excreted in urine [10]: more than 85%
- percentage excreted in urine following iv injection ([6]; guinea pig, in vivo, iv): 32%
